Measurements published in patent US11753407B2, “Compounds for treating spinal muscular atrophy” (PTC Therapeutics, Inc., priority 2012, dated 2023).

How the values were obtained:
[1] = system: SMN2 minigene mRNA (SMN2-A minigene) in HEK293H cells; test: SMN2 minigene mRNA splicing RT-qPCR assay in cultured cells; assay type: cell-based, human; conditions: Homo sapiens, HEK293-H; concentration increasing full length SMN2 mRNA 1.5-fold relative to vehicle-treated cells; HEK293H cells with SMN2-A minigene, 24 hours, 7-point concentration data; read-out: EC1.5x for production of full length SMN2 mRNA
Summary of the method: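 EC1.5× = concentration raising full-length SMN2 minigene mRNA 1.5-fold over vehicle, from 7-point curves in duplicate. Stably transfected HEK293H cells exposed 24 h at 37 °C; lysates assayed by multiplex RT-qPCR, minigene FL signal normalized to GAPDH via modified ΔΔCt.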

[2] = system: Smn protein in SMA patient fibroblast cells (GM03813); test: Smn protein assay in cultured cells (SMN HTRF); assay type: cell-based, human; conditions: SMA patient fibroblast cells, 48 hours; for EC1.5x for Smn protein expression: 7-point concentration curve, SMN HTRF, concentration producing 1.5 times Smn protein vs DMSO vehicle control; for maximum fold (Fold) increase of Smn protein: 7-point concentration data, fold relative to vehicle control
Summary of the method: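 Smn protein quantified by HTRF with anti-SMN d2/kryptate pair, 665/620 nm ratio blank-corrected, in RIPA lysates of GM03813 fibroblasts after 48 h compound exposure (7 concentrations, 3.16-fold steps, triplicates). Values: concentration producing 1.5× vehicle Smn level, and maximal fold increase.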

SMILES: Cc1cn2cc(-c3cc(=O)n4cc(N5CCN(C6CCC6)[C@@H](C)C5)ccc4n3)cc(Cl)c2n1 [Compound 536, 2-(8-chloro-2-methylimidazo[1,2-a]pyridin-6-yl)-7-[(3S)-4-cyclobutyl-3-methylpiperazin-1-yl]-4H-pyrido[1,2-a]pyrimidin-4-one]
- EC (1.5-fold increase) [1]: < 0.1 µM
- EC1.5x for Smn protein expression [2]: **** (an EC1.5x≤0.3 μM is indicated by four stars (****))
- maximum fold (Fold) increase of Smn protein [2]: **** (a fold increase between >1.5 and ≤1.65 is indicated by four stars (****))
- melting point: 228 to 232 °C

SMILES: Cc1cn2cc(-c3cc(=O)n4cc(N5CCN(CCO)[C@@H](C)C5)ccc4n3)cc(Cl)c2n1 [Compound 537, 2-(8-chloro-2-methylimidazo[1,2-a]pyridin-6-yl)-7-[(3S)-4-(2-hydroxyethyl)-3-methylpiperazin-1-yl]-4H-pyrido[1,2-a]pyrimidin-4-one]
- EC (1.5-fold increase) [1]: < 0.1 µM
- EC1.5x for Smn protein expression [2]: **** (an EC1.5x≤0.3 μM is indicated by four stars (****))
- maximum fold (Fold) increase of Smn protein [2]: **** (a fold increase between >1.5 and ≤1.65 is indicated by four stars (****))
- melting point: 228 to 234 °C

SMILES: COCCN1CCN(c2ccc3nc(-c4cc(F)c5nc(C)cn5c4)cc(=O)n3c2)C[C@@H]1C [Compound 538, 2-(8-fluoro-2-methylimidazo[1,2-a]pyridin-6-yl)-7-[(3S)-4-(2-methoxyethyl)-3-methylpiperazin-1-yl]-4H-pyrido[1,2-a]pyrimidin-4-one]
- EC (1.5-fold increase) [1]: < 0.1 µM
- EC1.5x for Smn protein expression [2]: *** (an EC1.5× between >0.3 μM and ≤1 μM is indicated by three stars (***))
- maximum fold (Fold) increase of Smn protein [2]: **** (a fold increase between >1.5 and ≤1.65 is indicated by four stars (****))
- melting point: 215 to 219 °C

SMILES: Cc1cn2cc(-c3cc(=O)n4cc(N5CCN(CCO)[C@@H](C)C5)ccc4n3)cc(F)c2n1 [Compound 539, 2-(8-fluoro-2-methylimidazo[1,2-a]pyridin-6-yl)-7-[(3S)-4-(2-hydroxyethyl)-3-methylpiperazin-1-yl]-4H-pyrido[1,2-a]pyrimidin-4-one]
- EC (1.5-fold increase) [1]: < 0.1 µM
- EC1.5x for Smn protein expression [2]: **** (an EC1.5x≤0.3 μM is indicated by four stars (****))
- maximum fold (Fold) increase of Smn protein [2]: **** (a fold increase between >1.5 and ≤1.65 is indicated by four stars (****))
- melting point: 270 to 274 °C

SMILES: Cc1cn2cc(-c3cc(=O)n4cc(N5CCN(CCOCCO)[C@@H](C)C5)ccc4n3)cc(F)c2n1 [Compound 540, 2-(8-fluoro-2-methylimidazo[1,2-a]pyridin-6-yl)-7-{(3S)-4-[2-(2-hydroxyethoxy)ethyl]-3-methylpiperazin-1-yl}-4H-pyrido[1,2-a]pyrimidin-4-one]
- EC (1.5-fold increase) [1]: < 0.1 µM
- maximum fold (Fold) increase of Smn protein [2]: *** (a fold increase between >1.35 and ≤1.5 is indicated by three stars (***))
- melting point: 175 to 181 °C

SMILES: Cc1cn2cc(-c3cc(=O)n4cc(N5CCN(C(C)C)[C@@H](C)C5)ccc4n3)cc(F)c2n1 [Compound 541, 2-(8-fluoro-2-methylimidazo[1,2-a]pyridin-6-yl)-7-[(3S)-3-methyl-4-(propan-2-yl)piperazin-1-yl]-4H-pyrido[1,2-a]pyrimidin-4-one]
- EC (1.5-fold increase) [1]: 0.1 to 0.3 µM
- EC1.5x for Smn protein expression [2]: *** (an EC1.5× between >0.3 μM and ≤1 μM is indicated by three stars (***))
- maximum fold (Fold) increase of Smn protein [2]: ***** (a fold increase >1.65 is indicated by five stars (*****))
- melting point: 191 to 194 °C

SMILES: Cc1cn2cc(-c3cc(=O)n4cc(N5CCN(C6CC6)[C@@H](C)C5)ccc4n3)cc(F)c2n1 [Compound 542, 7-[(3S)-4-cyclopropyl-3-methylpiperazin-1-yl]-2-(8-fluoro-2-methylimidazo[1,2-a]pyridin-6-yl)-4H-pyrido[1,2-a]pyrimidin-4-one]
- EC (1.5-fold increase) [1]: < 0.1 µM
- EC1.5x for Smn protein expression [2]: *** (an EC1.5× between >0.3 μM and ≤1 μM is indicated by three stars (***))
- maximum fold (Fold) increase of Smn protein [2]: ***** (a fold increase >1.65 is indicated by five stars (*****))
- melting point: 242 to 246 °C

SMILES: Cc1cn2cc(-c3cc(=O)n4cc(N5CCN(C6CCC6)[C@@H](C)C5)ccc4n3)cc(F)c2n1 [Compound 543, 7-[(3S)-4-cyclobutyl-3-methylpiperazin-1-yl]-2-(8-fluoro-2-methylimidazo[1,2-a]pyridin-6-yl)-4H-pyrido[1,2-a]pyrimidin-4-one]
- EC (1.5-fold increase) [1]: < 0.1 µM
- EC1.5x for Smn protein expression [2]: **** (an EC1.5x≤0.3 μM is indicated by four stars (****))
- maximum fold (Fold) increase of Smn protein [2]: ***** (a fold increase >1.65 is indicated by five stars (*****))
- melting point: 264 to 267 °C

SMILES: C[C@@H]1CN(c2ccc3nc(-c4ccc5c(cnn5C)c4)cc(=O)n3c2)CCN1 [Compound 545, 2-(1-methyl-1H-indazol-5-yl)-7-[(3R)-3-methylpiperazin-1-yl]-4H-pyrido[1,2-a]pyrimidin-4-one]
- EC (1.5-fold increase) [1]: 0.1 to 0.3 µM
- EC1.5x for Smn protein expression [2]: **** (an EC1.5x≤0.3 μM is indicated by four stars (****))
- maximum fold (Fold) increase of Smn protein [2]: ***** (a fold increase >1.65 is indicated by five stars (*****))
- melting point: 190 to 192 °C

SMILES: CCc1nc(C)cn2nc(-c3cc(=O)n4cc(N5CCNCC5)ccc4n3)cc12 [Compound 546, 2-(4-ethyl-6-methylpyrazolo[1,5-a]pyrazin-2-yl)-7-(piperazin-1-yl)-4H-pyrido[1,2-a]pyrimidin-4-one]
- EC (1.5-fold increase) [1]: < 0.1 µM
- EC1.5x for Smn protein expression [2]: **** (an EC1.5x≤0.3 μM is indicated by four stars (****))
- maximum fold (Fold) increase of Smn protein [2]: ***** (a fold increase >1.65 is indicated by five stars (*****))
- melting point: 230 to 233 °C

SMILES: CCc1nc(C)cn2nc(-c3cc(=O)n4cc(N5CCN(C)CC5)ccc4n3)cc12 [Compound 547, 2-(4-ethyl-6-methylpyrazolo[1,5-a]pyrazin-2-yl)-7-(4-methylpiperazin-1-yl)-4H-pyrido[1,2-a]pyrimidin-4-one]
- EC (1.5-fold increase) [1]: < 0.1 µM
- EC1.5x for Smn protein expression [2]: **** (an EC1.5x≤0.3 μM is indicated by four stars (****))
- maximum fold (Fold) increase of Smn protein [2]: ***** (a fold increase >1.65 is indicated by five stars (*****))
- melting point: 250 to 252 °C

SMILES: CCc1nc(C)cn2nc(-c3cc(=O)n4cc(N5CCN(CC)CC5)ccc4n3)cc12 [Compound 548, 2-(4-ethyl-6-methylpyrazolo[1,5-a]pyrazin-2-yl)-7-(4-ethylpiperazin-1-yl)-4H-pyrido[1,2-a]pyrimidin-4-one]
- EC (1.5-fold increase) [1]: < 0.1 µM
- EC1.5x for Smn protein expression [2]: **** (an EC1.5x≤0.3 μM is indicated by four stars (****))
- maximum fold (Fold) increase of Smn protein [2]: ***** (a fold increase >1.65 is indicated by five stars (*****))
- melting point: 250 to 252 °C

SMILES: CCc1nc(C)cn2nc(-c3cc(=O)n4cc(N5CCN(CCO)CC5)ccc4n3)cc12 [Compound 549, 2-(4-ethyl-6-methylpyrazolo[1,5-a]pyrazin-2-yl)-7-[4-(2-hydroxyethyl)piperazin-1-yl]-4H-pyrido[1,2-a]pyrimidin-4-one]
- EC (1.5-fold increase) [1]: < 0.1 µM
- EC1.5x for Smn protein expression [2]: **** (an EC1.5x≤0.3 μM is indicated by four stars (****))
- maximum fold (Fold) increase of Smn protein [2]: ***** (a fold increase >1.65 is indicated by five stars (*****))
- melting point: 240 to 242 °C
